In assay [1] the target is limbic D-2 dopamine receptor (Rattus norvegicus, UniProt P61169). In words: biochemical. Format: binding, rats. The settings on record: for Ki: rat limbic tissue, 0.3 nM 3H-spiroperidol, 37° C., 10 min, read-out: Limbic D-2 Binding (Ki nM). The procedure:
The compounds of the invention are further studied for their ability to inhibit limbic D-2 dopamine receptor binding. This in vitro assay measures the ability of the compounds tested to bind to the dopamine receptor sites.
Several rats are decapitated and the brains are rapidly removed. Limbic brain tissue (nucleus accumbens, septal area, olfactory tubercle) is dissected and homogenized on ice in 9 volumes of buffer (50 mM Tris-HCl, 120 mM NaCl, 5 mM KCl, 1 mM CaCl2, 1 mM MgCl2, 0.1% L-ascorbic acid, 10 μM pargyline HCl, pH 7.1) using a Polytron homogenizer at setting 5 for three 15-sec bursts. The homogenate is then diluted 4-fold with buffer and centrifuged at 30,000×g for 20 min, and the supernatant is discarded. The pellet is resuspended in the same volume of buffer and recentrifuged as before, again discarding the supernatant. This pellet is then resuspended in the same volume of buffer used in the homogenization, and the protein content of this preparation is assyed by the Lowry method. The homogenate is stored frozen at -70° C. until use.
Thirty μL of the homogenate (0.02-0.3 mg protein/sample) are incubated with 0.3 nM ^3 H-spiroperidol (New England Nuclear) and various concentrations of test drug in a final volume of 1 ml of the above buffer for 10 min in a 37° C. water bath. At the end of the incubation, 3 ml of cold 50 mM Tris-HCl, pH 7.7, are added to each tube, and the contents are rapidly vacuum-filtered through Whatman GF/B glass-fiber filters. The filters are then rapidly washed 3 times with 3 ml of the same buffer, placed in scintillation vials, and shaken for 15 min with 10 ml of Hydrofluor (National Diagnostics) scintillation cocktail. The vials are then counted in a Packard 460CD scintillation counter.
Specific binding is defined as total binding less binding in the presence of 1 μM (+)butaclamol. Binding in the presence of various concentrations of test drug is expressed as a per cent of specific binding when no drug is present.

Assay [2] in a line: Conditioned avoidance (discrete trial) test. Format: in vivo, Male CD rats. The conditions noted are these: for ED50: Rattus norvegicus; for Activity at 40 mg/kg: 40 mg/kg perorally administered. The procedure: The antipsychotic activity of the compounds of the invention is assessed via the conditioned avoidance (discrete trial) test. This test has excellent clinical correlation for antipsychotic activity.
Male CD rats (Charles River) maintained at approximately 400-450 gm body weight are used. Rats trained previously are placed in plexiglass experimental chambers equipped with a response lever, house light, and sonalert. A steel grid floor is wired for presentation of electric shock. Each trial consists of a fifteen-second warning tone (conditioned stimulus), continuing for an additional fifteen seconds accompanied by electric shock, (unconditioned stimulus). The rat can terminate a trial at any point by depression of the response lever. A response during the initial fifteen-second warning tone ends the trial before shock delivery and is considered an avoidance response, while a response occurring during shock delivery is an escape response. Trials are presented on a variable interval schedule of two minutes. The session consists of sixty trials. Animals are run two to three times weekly with control sessions always preceding a drug run, and with at least one day intervening, compounds are administered i.p. or p.o. at appropriate pre-treatment times to a minimum of five to six rats at each dose level over a range of doses.
The following experimental parameters are recorded by computer: (1) the number of intertrial interval responses, (2) the number of avoidance responses, (3) the number of escape responses, and (4) the number of trials in which no response occurred.
Response counts are summed over all subjects at a given dose. […] This number is expressed as a percentage of the total trials. Control performance is arbitrarily assigned a value of 100% for avoidance and the dose calculated to produce a 50% block in avoidance responding (AB50 ) is obtained from a dose-effect regression line fitted by the method of least squares. Potential antipsychotic compounds suppress avoidance responding and increase escape responding.

The mark [3] stands for this setting: po, perorally administered, discrete trial, rats, read-out: AB50 (the source's name).

Structures can show the parent of a compound that is named as a salt. Where two headings read alike, the source gives them in different places.

Chain of limbic D-2 dopamine receptor (P61169 whole entry): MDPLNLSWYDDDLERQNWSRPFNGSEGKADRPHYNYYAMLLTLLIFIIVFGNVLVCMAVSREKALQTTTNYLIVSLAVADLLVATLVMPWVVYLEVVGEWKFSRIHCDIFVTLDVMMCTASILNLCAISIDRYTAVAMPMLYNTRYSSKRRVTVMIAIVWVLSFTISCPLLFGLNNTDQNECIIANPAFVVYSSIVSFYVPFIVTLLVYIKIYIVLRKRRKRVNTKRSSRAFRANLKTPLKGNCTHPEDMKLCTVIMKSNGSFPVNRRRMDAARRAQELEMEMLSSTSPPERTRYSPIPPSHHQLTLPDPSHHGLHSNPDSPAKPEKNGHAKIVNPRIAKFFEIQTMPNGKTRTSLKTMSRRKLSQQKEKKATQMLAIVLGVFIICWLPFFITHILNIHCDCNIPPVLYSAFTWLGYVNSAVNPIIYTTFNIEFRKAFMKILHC

With `O=C1[C@@H]2[C@@H]([C@H]3CC[C@@H]2O3)S(=O)(=O)N1CCCCN1CCN(c2cncc(Cl)n2)CC1` (relative stereo) [Example 8, 3aα,4β,7β,7aα-hexahydro-2-[4-[4-(6-chloro-2-pyrazinyl)-1-piperazinyl]butyl]-4,7-epoxy-1,2-benzisothiazol-3(2H)-one 1,1-dioxide, hydrochloride], the inhibition at 10 µM in assay [1] (read-out: Limbic D-2 Binding, % inhibition at 10 μM) amounted to 36%. Moreover, in assay [2] (setting [3]), the ED50 worked out at 34.3 mg/kg.

As to `O=C1[C@H]2[C@H]([C@@H]3CC[C@H]2O3)S(=O)(=O)N1CCCCN1CCN(c2cnccn2)CC1` (relative stereo) [Example 19, (3aα,4β,7β,7aα)-Hexahydro-2-[4-[4-(2-pyrazinyl)-1-piperazinyl]butyl]-4,7-epoxy-1,2-benzisothiazol-3(2H)-one 1,1-dioxide, dihydrochloride, hemihydrate], the ED50 in assay [2] (setting [3]) was 47.9 mg/kg.

Turning to `O=C1[C@@H]2[C@@H]([C@@H]3CC[C@H]2O3)S(=O)(=O)N1CCCCN1CCN(c2cncc(Cl)n2)CC1` (relative stereo) [Example 20, (3aα,4α,7α,7aα)-2-[4-[4-(6-Chloro-2-pyrazinyl)-1-piperazinyl]butyl]hexahydro-4,7-epoxy-1,2-benzisothiazol-3(2H)-one 1,1-dioxide, hydrochloride], the “Activity at 40 mg/kg” value in assay [2] was “showed activity”.

Take `O=C1C2C3C=CC(C3)C2S(=O)(=O)N1CCCCN1CCN(c2ncccn2)CC1` (stereo not drawn) [Example 1, 3a,4,7,7a-Tetrahydro-2-[4-[4-(2-pyrimidinyl)-1-piperazinyl]butyl]-4,7-methano-1,2-benzisothiazol-3(2H)-one 1,1-dioxide, dihydrochloride, hemihydrate]: the Ki in assay [1] worked out at 1100 nM. Also, in assay [2] (setting [3]), the ED50 was found to be 45.4 mg/kg.

As to `O=C1C2C3C=CC(CC3)C2S(=O)(=O)N1CCCCN1CCN(c2ncccn2)CC1` (stereo not drawn) [Example 2, 3a,3,7,7a-Tetrahydro-2-[4-[4-(2-pyrimidinyl)-1-piperazinyl]butyl]-4,7-ethano-1,2-benzisothiazol-3(2H)-one 1,1-dioxide, dihydrochloride, hydrate], the Ki in assay [1] stood at 2000 nM.

`CC1=C(C)CC2C(C1)C(=O)N(CCCCN1CCN(c3ncccn3)CC1)S2(=O)=O` (stereo not drawn) [Example 3, 3a,4,7,7a-Tetrahydro-5,6-dimethyl-2-[4-[4-(2-pyrimidinyl)-1-piperazinyl]butyl]-1,2-benzisothiazol-3(2H)-one 1,1-dioxide dihydrochloride]: in assay [1] (read-out: Limbic D-2 Binding, % inhibition at 1 μM), the inhibition at 1 µM is 21%.

`O=C1C2C3C=CC(C4CC34)C2S(=O)(=O)N1CCCCN1CCN(c2ncccn2)CC1` (stereo not drawn) [Example 6, 4,4a,5,5a,6,6a-hexahydro-2-[4-[4-(2-pyrimidinyl)-1-piperazinyl]butyl]-4,6-etheno-2H-cyclopropa[f][1,2]benzisothiazol-3(3aH)-one 1,1-dioxide,dihydrochloride]: the inhibition constant (Ki) in assay [1] is 1410 nM.

With `O=C1c2ccccc2S(=O)(=O)N1CCCCN1CCN(c2nccnc2Cl)CC1` [Example 11, 2-[4-[4-(3-Chloro-2-pyrazinyl)-piperazinyl]butyl]-1,2-benzisothiazol-3(2H)-one 1,1-dioxide, hydrochloride], the Ki in assay [1] turned out to be 493 nM.

For `CC1=C(C)CC2C(C1)C(=O)N(CCCCN1CCN(c3nccnc3Cl)CC1)S2(=O)=O` (stereo not drawn) [Example 13, 2-[4-[4-(3-Chloro-2-pyrazinyl)-1-piperazinyl]butyl]-3a,4,7,7a-tetrahydro-5,6-dimethyl-1,2-benzisothiazol-3(2H)-one 1,1-dioxide, hydrochloride, hydrate], the Ki in assay [1] was determined as 507 nM.

Consider `Cl.Cl.O=C1C2C3C=CC(C3)C2S(=O)(=O)N1CCCCN1CCN(c2cncc(Cl)n2)CC1` (stereo not drawn) [Example 14, 2-[4-[4-(6-Chloro-2-pyrazinyl)-1-piperazinyl]butyl]-3a,4,7,7a-tetrahydro-4,7-methano-1,2-benzisothiazol-3(2H)-one 1,1-dioxide, dihydrochloride], for which, in assay [2] (setting [3]), the ED50 is 78.2 mg/kg.

For the compound `O=C1C2C3CCC(C3)C2S(=O)(=O)N1CCCCN1CCN(c2ncccn2)CC1` (stereo not drawn) [Example 15, 2-[4-[4-(2-Pyrimidinyl)-1-piperazinyl]butyl]-3a,4,5,6,7,7a-hexahydro-4,7-methano-1,2-benzisothiazol-3(2H)-one 1,1-dioxide, dihydrochloride, hemihydrate], in assay [2], the “Activity at 40 mg/kg” value is reported as “showed activity”.

As to `Cl.O=C1C2C3CCC(C3)C2S(=O)(=O)N1CCCCN1CCN(c2cncc(Cl)n2)CC1` (stereo not drawn) [Example 16, 2-[4-[4-(6-Chloro-2-pyrazinyl)-1-piperazinyl]butyl]-3a,4,5,6,7,7a-hexahydro-4,7-methano-1,2-benzisothiazol-3(2H)-one 1,1-dioxide, hydrochloride], the “Activity at 40 mg/kg” value in assay [2] is “showed activity”.

Regarding `O=C1C2C3CCC(C4CC43)C2S(=O)(=O)N1CCCCN1CCN(c2ncccn2)CC1` (stereo not drawn) [Example 17, Hexahydro-2-[4-[4-(2-pyrimidinyl)-1-piperazinyl]butyl-4,6-ethano-2H-cycloprop[f]-1,2-benzisothiazol-3(2H)-one 1,1-dioxide, hydrochloride], the “Activity at 40 mg/kg” value in assay [2] was “showed activity”.

For `O=C1C2C3C=CC(C4CC34)C2S(=O)(=O)N1CCCCN1CCN(c2cncc(Cl)n2)CC1` (stereo not drawn) [Example 18, 2-[4-[4-(6-Chloro-2-pyrazinyl)-1-piperazinyl]butyl]-4,4a,5,5a,6,6a-hexahydro-4,6-etheno-2H-cycloprop[f]-1,2-benzisothiazol-3(2H)-one 1,1-dioxide, hydrochloride], in assay [1], the Ki is 1030 nM. Further, the “Activity at 40 mg/kg” value in assay [2] is reported as “showed activity”.

For `O=C1C2C3C=CC(C4C=CC43)C2S(=O)(=O)N1CCCCN1CCN(c2ncccn2)CC1` (stereo not drawn) [Example 21, 3a,4,4a,6a,7,7a-Hexahydro-2-[4-[4-(2-pyrimidinyl)-1-piperazinyl]butyl]-4,7-ethenocyclobut[f]-1,2-benzisothiazol-3(2H)-one 1,1-dioxide, dihydrochloride], the “Activity at 40 mg/kg” value in assay [2] was “showed activity”. The ED50 in assay [2] (setting [3]) is 39.4 mg/kg.

`O=C(CCCN1CCC(O)(c2ccc(Cl)cc2)CC1)c1ccc(F)cc1` [Haloperidol, reference compound]: the “AB50 (standard compounds)” value in assay [2] (i.p., discrete trial, rats) was 0.18 mg/kg i.p.

As for `O=C(CCCN1CCC2(CC1)C(=O)NCN2c1ccccc1)c1ccc(F)cc1` [Spiperone, reference compound], the ED50 in assay [2] (ip, discrete trial, rats, read-out: AB50 (standard compounds)) was determined as 0.13 mg/kg.

In general, inhibition refers to the percentage by which the read-out fell short of the control. By Ki is commonly meant the equilibrium dissociation constant of an inhibitor or competing ligand from its target.

The values are drawn from US4732984A, “Piperazinoisothiazolones with psychotropic activity” (priority 1986, dated 1988).
